For assay [1], the system named is normal lymphocytes of AML bone marrow samples. Kind of assay: Ex vivo flow cytometry (ExviTech) assay in AML donor bone marrow samples. The class given is cell-based, human. Here is the method:
(§1) Patient Samples: The study included bone marrow (BM) samples from adult patients over 18 years of age who were diagnosed with AML. Samples were analyzed in two different batches with the first batch containing 10 patients (donors assigned identification codes containing CG1) and the second comprising the remaining 20 donors (assigned identification codes containing CG3). Corresponding clinical data was not available for the second batch of 20 patient samples at the time of writing.
(§2) Experimental Study Design: To evaluate and characterize the ex vivo pharmacology of Compound 1 in malignant cells and normal lymphocytes of bone marrow samples from thirty donors with acute myeloid leukemia using a flow cytometry-based platform (ExviTech) (Bennett, et al Clin Lymphoma Myeloma Leuk 2014 August; 14(4):305-318).
(§3) On Day 1, the donor sample was received. A small part was separated for validation, and the majority was diluted with culture medium (Roswell Park Memorial Institute (RPMI) 1640) and plated into 96-well plates previously prepared with a range of Compound 1 concentrations. The number of live leukemic cells seeded in each well was fixed between 8000 and 32,000, depending on the percentage of leukemic cells for each sample. The plates were incubated for 24, 48, or 96 hours. Antibodies anti-D34, anti-CD117, anti-HLA-DR, anti-CD45, anti-CD14, anti-CD64, anti-CD13, anti-CD11b) or Annexin V were added to identify leukemic cells using a gating strategy based on forward scatter (FSC) or side scatter (SSC) and expression or lack of expression of different surface markers. The monoclonal antibody selection was performed to optimize the identification of leukemic cells in each sample. The aim of this analysis was not the phenotypic characterization but only the identification of these cells. Accordingly, the markers that Euroflow (van Dongen et al, Leukemia 2012 September; 26(9):1908-1975) has designated as the “backbone markers” for AML (CD34, CD45, CD117) and human leukocyte antigen-DR (HLA-DR) were included in the combination. They allowed the identification of the leukemic cells in almost 90% of AML patients. Additional panels, CD34/CD14/CD64/CD45 and CD34/CD11b/CD13/CD45, were also used to complete the identification of the myeloid leukemic population. This allowed for the selection of the two best antibodies for unequivocal identification of the pathological cell population in each particular sample.
(§4) Live leukemic cells were identified by their light scattering properties classified as high, intermediate, or low (eg, FSC^int/hi/SSC^int) in the absence of Annexin V fluorescein isothiocyanate (FITC) staining. Forward scatter/side scatter selection was performed to exclude debris. The average percentage of cell viability on receipt of the sample was greater than 50% (samples were only processed if the viability was greater than 50%). In some AML donor samples, sufficient normal, non-tumoral lymphocyte cells could be counted, and the effect of Compound 1 was measured in this cell population. Non-tumoral lymphocytes were identified by bright expression of CD45, FSC^low/SSC^low and absence of myeloid markers (CD117, CD11b, and CD13).
(§5) Detailed descriptions of methods used have been published previously (Bennett, et al Clin Lymphoma Myeloma Leuk 2014 August; 14(4):305-318). Briefly, BM samples were extracted under sterile conditions in hospitals of origin and were received within 24 hours of extraction. Initial analysis evaluated the number of pathological cells and their viability. Different volumes of sample (1 μL, 3 μL, 5 μL, and 7 μL) were transferred in duplicate into a 96-well plate. To lyse red blood cells, 180 μL of ammonium chloride lysis solution (2 g KHCO3, 16.58 g NH4Cl, 0.074 g disodium ethylenediaminetetraacetic acid ⋅2H2O, and H2O adjusted to […]) was added to each well. Following a 10-minute incubation period at 4° C., each plate was centrifuged for 5 minutes at 1200 rpm, and the supernatant removed. […]
(In general: A flow cytometer gives signals particle by particle.)

In assay [2] the test system is leukemic cells of AML bone marrow samples. The assay is described as above. The class given is cell-based, human. Particulars: for Emax: 100% minus YMin; for depletion of leukemic cells, on average: sensitive patient samples. Here is the method:
as §1, §2, §3, §4, §5

The subject of another assay is HL-60 human AML cells. The class given is in vivo, SCID mice. Particulars: for reduction in percentage of human CD33+/CD45+ tumor cells in the BM: vs vehicle control. As to the method:
In this study, Compound 1 antitumor activity in the HL-60 IV AML xenograft model was studies. In this model, HL-60 human AML cells engraft in host BM and internal organs (eg, spleen, liver) and animals develop progressive peripheral leukocytosis. Female severe combined immunodeficiency (SCID) mice were inoculated with HL-60 cells by tail vein injection. To understand the effect of Compound 1 on the xenografted HL-60 cells, animals were dosed intraperitoneal (IP) with vehicle or Compound 1 (0.5, 1, 2.5, and 5 mg/kg) once daily (QD)×5 between Weeks 3 and 4 post-engraftment (AP6516, survival study) or animals were dosed IP twice daily (BID) with vehicle or Compound 1 for 5 or 10 consecutive days (5 mg/kg BID×5 or 2.5 mg/kg, BID×10) between Weeks 6 and 8 post-engraftment (Study AP6982, % human CD33+[hCD33+] cells in BM).
In this study, different Compound 1 dosing schedules (5 mg/kg, BID×5 consecutive days versus 2.5 mg/kg, BID×10 consecutive days) were studied while maintaining the total amount of drug administered constant. Vehicle control animals were treated with 5% N-methyl-2-pyrrolidone (NMP)/45% PEG 400/50% saline. Treatment was initiated 6 weeks post inoculation. Vehicle and Compound 1 treatment groups were terminated either on Day 7 (following 5 consecutive days of 5 mg/kg twice a day [BID] Compound 1) or on Day 11 (following 10 consecutive days of 2.5 mg/kg BID Compound 1) post treatment initiation. The primary endpoint for the study was percentage of hCD33+/CD45+ cells in the BM by FACS analysis. Additional endpoints included cell viability, body weight, and BM histology.
HL-60 cells were identified from femur bone marrow samples by FACS analysis as CD33+/CD45+ with human specific antibodies. The percentage of human CD33+/CD45+ cells in the BM of vehicle-treated animals from the BID×5 and BID×10 groups were 47.5±6% and 55.2±6%, respectively.

SMILES strings stand for the structures. Where “and” joins values, the source holds several entries; their conditions need not be identical. Equal entries are not always repeated. Where two headings read alike, the source gives them in different places.

In general, Emax refers to the greatest response seen or fitted, relative to the assay's reference. As a reminder, the EC50 is the concentration at which the effect is half-maximal.

Consider `O=C1CCC(N2Cc3cc(CNC(=O)C(F)(F)c4ccc(Cl)cc4)ccc3C2=O)C(=O)N1` (stereo not shown) [Compound 1, 2-(4-chlorophenyl)-N-((2-(2,6-dioxopiperidin-3-yl)-1-oxoisoindolin-5-yl)methyl)-2,2-difluoroacetamide], for which the Emax in assay [1] (Homo sapiens, Lymphocyte, normal lymphocytes in patient samples where sufficient could be counted, from 24 to 96 hours, read-out: Emax, averaged) is 46 to 76%; in assay [1] (Lymphoid (LIVE) cells, 48 hours incubation, per AML donor sample, 100% minus YMin), 69.4%; in assay [2] (Homo sapiens, 96 h, Leukemic (LIVE) cells, 96 hours incubation, per AML donor sample, read-out: Emax) it was 98%; in assay [2] (Leukemic (LIVE) cells, 24 hours incubation, per AML donor sample), 64.3% and 83.1%; in assay [2] (Leukemic (LIVE) cells, 48 hours incubation, per AML donor sample) it was 99.8%; in assay [2] (Leukemic (LIVE) cells, 96 hours incubation, per AML donor sample) it was 100.0% and 99.9% and 99.6%. In addition, the EC50 is 43 nM in assay [1] (Lymphoid (LIVE) cells, 48 hours incubation, per AML donor sample, unit inferred); 2 to 160 nM in assay [2] (Homo sapiens, 96 h, sensitive AML patient samples (26 out of 30), across all three time points (24, 48, 96 hours), read-out: EC50 (range)); 21 nM in assay [2] (Homo sapiens, 96 h, sensitive AML patient samples (26 out of 30), across all three time points (24, 48, 96 hours), read-out: mean EC50); 13 nM in assay [2] (Leukemic (LIVE) cells, 24 hours incubation, per AML donor sample, unit not printed in table (2 to 160 nM), read-out: EC50); 5 nM in assay [2] (Leukemic (LIVE) cells, 96 hours incubation, per AML donor sample, unit not printed in table (2 to 160 nM), read-out: EC50). Moreover, the “patient samples sensitive to Compound 1” value in assay [2] (30 fresh AML bone marrow samples) is 26 out of 30. For the same molecule, the “depletion of leukemic blasts” value in assay [2] (four patient samples categorized as insensitive, at 24 and 48 hours) was at most 68%. The “depletion of leukemic cells, on average” value in assay [2] (by 48 hours) was over 92%; in assay [2] (by 96 hours), over 98%. Further, the results for the “human CD33+/CD45+ cells in the BM” value in the assay with HL-60 human AML cells (2.5 mg/kg IP BID×10) and with HL-60 human AML cells (5 mg/kg IP BID×5) were 15.7% and 21.9%, respectively. The “reduction in percentage of human CD33+/CD45+ tumor cells in the BM” value is on record as 71.5% in the assay on HL-60 human AML cells (2.5 mg/kg IP BID×10, p<0.0001) and 54.0% in the assay on HL-60 human AML cells (5 mg/kg IP BID×5, p=0.0013).
